Measured values from US20130196050A1, “SALTY TASTE ENHANCER” (AJINOMOTO CO., INC., priority 2010, published 2013).

Test system: salty taste
Test: Sensory evaluation of salty taste-enhancing activity (quantitative sensory evaluation test)
Type: in vivo, panelists
Protocol: The strength of the salty taste enhancing activity of the compound of Example 35 was examined by a quantitative sensory evaluation test.
The quantitative sensory evaluation test was performed as follows. The strength of the salty taste enhancing activity when the compound of Example 35 as a sample was mixed at 0.00005 to 0.0040 g/dl with distilled water containing sodium chloride (0.5 g/dl) was measured. Distilled water containing sodium chloride at 0.55 g/dl, 0.60 g/dl, 0.65 g/dl was used as a comparison target. Using a linear measurement method, the corresponding marks were put down as positions in the straight lines showing the sodium chloride concentrations of 1.0 time (0.50 g/dl), 1.1 times (0.55 g/dl), 1.2 times (0.60 g/dl), 1.3 times (0.65 g/dl). For sensory marks, the positions put down by the panelists were measured, averaged and shown as the salty taste enhancement ratio (times) wherein n=5. […] The “initial taste” is the evaluation of the strength of the salty taste for 2 seconds after placing in the mouth, and the “middle and after taste” is a combination of middle taste and after taste, which is the evaluation of the strength of the salty taste after 2 seconds from placing in the mouth.

[1] = sensory evaluation FIG. 2 compared with FIG. 3

`O=C(NCCc1c[nH]c2ccc(O)cc12)c1c(O)cccc1O` [Example 35, 2,6-dihydroxy-N-(2-(5-hydroxy-1H-indol-3-yl)ethyl)benzamide] was tested, and the “salty taste enhancing activity” value (0.00005 to 0.0040 g/dl in distilled water containing sodium chloride 0.5 g/dl, n=5, FIG. 2) was “has a salty taste enhancing activity”, the “concentration region in which salty taste enhancing effect and ENaC activation current began to show” value [1] was no more than 0.0001 g/dL and the “concentration region in which salty taste enhancing effect and ENaC activation current reach plateau” value [1] was “exceeding 0.0010 g/dl”.
